{"source": "paper PMC10353390", "about": "“Biological and Structural Analyses of New Potent Allosteric Inhibitors of HIV-1 Integrase” (Antimicrobial Agents and Chemotherapy, 2023)", "key": {"[1]": {"target": "T1, HIV-1 IN (Human immunodeficiency virus type 1 group M subtype B, UniProt P12497)", "T1 construct": "made in house", "assay": "HTRF IN multimerization assay", "type": "biochemical", "settings": "mean ± SD", "text": "A key property of INLAIs is the ability to promote HIV-1 IN homo-multimerization ([39][–][42]). […] The maximal signal (plateau) in our IN aggregation assay corresponds to the highest HTRF signal increase under saturating INLAI concentration, relative to baseline level. Thus, MUT916, MUT884, MUT871, and MUT872 increased HIV-1 IN aggregation 3.7 to 4.4-fold, while BDM-2, BI-224436, and S-I-82 did so 5 to 6-fold (Table 1)."}, "[2]": {"assay": "Cytotoxicity assay in MT4 cells", "type": "cell-based", "settings": "human, MT4 cells (proliferating human T-cell line), CellTiter-Glo", "text": "Growth inhibition was monitored in a proliferating human T-cell line (MT4) with different concentrations of compounds, using the CellTiter-Glo luminescent reagent (Promega), as previously described ([12])."}, "[3]": {"test_system": "lab-adapted and clinical HIV-1 isolates", "assay": "Infection assays in primary T CD4+ lymphocytes", "type": "cell-based", "settings": "Human immunodeficiency virus 1, Lymphocyte"}, "[4]": {"test_system": "NL4-3 HIV-1 with INLAI-selected IN single point mutations", "type": "cell-based"}, "[5]": {"parameters": "method as in ref 20 = [20]; 20 Single ascending dose trial investigating safety, tolerability and pharmacokinetics of BDM-2 in healthy male subjects . https://clinicaltrials.gov/ct2/show/NCT03634085 . Accessed 17 July 2020 .", "settings": "single ascending dose, healthy male subjects; cited from earlier work"}}, "note": "Where two headings read alike, the source gives them in different places.", "data": [{"compound": "Cc1ccc(C2CC2)c(-c2ccc3c(c2)CCCO3)c1[C@H](OC(C)(C)C)C(=O)O", "note": "[BDM-2]", "values": [{"measurement": "AC50", "setting": "[1]; concentration for 50% maximum activation of multimerization", "value": "20 ± 11", "unit": "nM"}, {"measurement": "IN multimerization Plateau", "setting": "[1]; maximum multimerization reached versus baseline", "value": "560 ± 150", "unit": "%"}, {"measurement": "CC50", "setting": "[2]", "value": "69000 ± 8000", "unit": "nM"}, {"measurement": "EC50", "setting": "[3]; read-out: EC50 33913N (B)", "value": "4.2 ± 1.6", "unit": "nM"}, {"measurement": "EC50", "setting": "[3]; read-out: EC50 HXB2 (B)", "value": "3.4 ± 1", "unit": "nM"}, {"measurement": "EC50", "setting": "[3]; read-out: EC50 KER2008 (A)", "value": "8.1 ± 1.3", "unit": "nM"}, {"measurement": "EC50", "setting": "[3]; read-out: EC50 NL4-3 (B)", "value": "8.3 ± 4.3", "unit": "nM"}, {"measurement": "EC50", "setting": "[3]; read-out: EC50 NP1525 (CRF01_AE)", "value": "11 ± 5", "unit": "nM"}, {"measurement": "EC50", "setting": "[3]; read-out: EC50 NP1538 (B)", "value": "13 ± 6", "unit": "nM"}, {"measurement": "EC50 fold change compared to wild type NL4-3, A128T", "setting": "[4]", "value": 4}, {"measurement": "EC50 fold change compared to wild type NL4-3, H171Q", "setting": "[4]", "value": 3}, {"measurement": "EC50 fold change compared to wild type NL4-3, N222K", "setting": "[4]", "value": 2}, {"measurement": "EC50 fold change compared to wild type NL4-3, T174I", "setting": "[4]", "value": 253}, {"measurement": "EC50 fold change compared to wild type NL4-3, Y99H", "setting": "[4]", "value": 4}, {"measurement": "safety in phase I clinical trial", "setting": "[5]", "value": "without any serious adverse event and few mild adverse events"}]}]}
